The values below come from US9765070B2, “Substituted oxopyridine derivatives” (Bayer Pharma Aktiengesellschaft, priority 2013, dated 2017).

Each structure is given as a SMILES string. pIC50: −log10 of the molar value.

The target of one experiment is human factor XIa (Homo sapiens (Human), UniProt P03951). Briefly: Measurement of FXIa inhibition (fluorogenic peptide substrate Boc-Glu(OBzl)-Ala-Arg-AMC). It is filed as biochemical. The following applies: factor XIa from Kordia 0.45 nM, 15 min preincubation, 30 min at 22° C., fluorescence. The procedure: a.1) Measurement of FXIa Inhibition
The factor XIa inhibition of the substances according to the invention is determined using a biochemical test system which utilizes the reaction of a peptidic factor XIa substrate to determine the enzymatic activity of human factor XIa. Here, factor XIa cleaves from the peptic factor XIa substrate the C-terminal aminomethylcoumarin (AMC), the fluorescence of which is measured. The determinations are carried out in microtitre plates.
In each case 1 μl of the diluted substance solutions is placed into the wells of white microtitre plates from Greiner (384 wells). 20 μl of assay buffer (50 mM of Tris/HCl pH 7.4; 100 mM of sodium chloride; 5 mM of calcium chloride; 0.1% of bovine serum albumin) and 20 μl of factor XIa from Kordia (0.45 nM in assay buffer) are then added successively. After 15 min of incubation, the enzyme reaction is started by addition of 20 μl of the factor XIa substrate Boc-Glu(OBzl)-Ala-Arg-AMC dissolved in assay buffer (10 μM in assay buffer) from Bachem, the mixture is incubated at room temperature (22° C.) for 30 min and fluorescence is then measured (excitation: 360 nm, emission: 460 nm). The measured emissions of the test batches with test substance are compared to those of control batches without test substance (only dimethyl sulphoxide instead of test substance in dimethyl sulphoxide), and IC50 values are calculated from the concentration/activity relationships.

Another experiment concerns the target human plasma kallikrein (Homo sapiens (Human), UniProt P03952). Briefly: Determination of the plasma kallikrein activity (fluorogenic substrate H-Pro-Phe-Arg-AMC). Format: biochemical. The following applies: plasma kallikrein from Kordia 0.6 nM, 15 min preincubation, 30 min at 22° C., fluorescence. The protocol:
a.5) Determination of the Plasma Kallikrein Activity
To determine the plasma kallikrein inhibition of the substances according to the invention, a biochemical test system is used which utilizes the reaction of a peptidic plasma kallikrein substrate to determine the enzymatic activity of human plasma kallikrein. Here, plasma kallikrein cleaves from the peptic plasma kallikrein substrate the C-terminal aminomethylcoumarin (AMC), the fluorescence of which is measured. The determinations are carried out in microtitre plates.
In each case 1 μl of the diluted substance solutions is placed into the wells of white microtitre plates from Greiner (384 wells). 20 μl of assay buffer (50 mM Tris/HCl pH 7.4; 100 mM sodium chloride solution; 5 mM of calcium chloride solution; 0.1% of bovine serum albumin) and 20 μl of plasma kallikrein from Kordia (0.6 nM in assay buffer) are then added successively. After 15 min of incubation, the enzyme reaction is started by addition of 20 μl of the substrate H-Pro-Phe-Arg-AMC dissolved in assay buffer (10 μM in assay buffer) from Bachem, the mixture is incubated at room temperature (22° C.) for 30 min and fluorescence is then measured (excitation: 360 nm, emission: 460 nm). The measured emissions of the test batches with test substance are compared to those of control batches without test substance (only dimethyl sulphoxide instead of test substance in dimethyl sulphoxide), and IC50 values are calculated from the concentration/activity relationships.

Chain of human plasma kallikrein (P03952 391-638): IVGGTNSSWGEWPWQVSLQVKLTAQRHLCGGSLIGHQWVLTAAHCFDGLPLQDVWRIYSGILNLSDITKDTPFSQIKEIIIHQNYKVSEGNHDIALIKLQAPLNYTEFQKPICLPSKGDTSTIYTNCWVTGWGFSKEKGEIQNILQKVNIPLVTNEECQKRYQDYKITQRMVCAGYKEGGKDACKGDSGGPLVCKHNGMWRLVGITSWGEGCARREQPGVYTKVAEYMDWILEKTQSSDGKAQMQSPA
Chain of human plasma kallikrein (P03952 20-390 partner): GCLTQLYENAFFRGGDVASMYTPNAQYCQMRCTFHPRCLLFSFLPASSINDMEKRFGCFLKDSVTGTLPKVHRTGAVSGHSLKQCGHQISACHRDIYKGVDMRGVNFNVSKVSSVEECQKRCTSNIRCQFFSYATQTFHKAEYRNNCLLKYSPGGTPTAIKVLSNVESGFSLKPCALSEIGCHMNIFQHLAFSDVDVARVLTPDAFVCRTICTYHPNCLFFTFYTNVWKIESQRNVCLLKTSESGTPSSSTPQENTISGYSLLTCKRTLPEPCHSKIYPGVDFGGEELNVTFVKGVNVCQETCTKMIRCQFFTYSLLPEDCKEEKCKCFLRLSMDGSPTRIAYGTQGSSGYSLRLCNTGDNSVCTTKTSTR
Chain of human factor XIa (P03951 388-625): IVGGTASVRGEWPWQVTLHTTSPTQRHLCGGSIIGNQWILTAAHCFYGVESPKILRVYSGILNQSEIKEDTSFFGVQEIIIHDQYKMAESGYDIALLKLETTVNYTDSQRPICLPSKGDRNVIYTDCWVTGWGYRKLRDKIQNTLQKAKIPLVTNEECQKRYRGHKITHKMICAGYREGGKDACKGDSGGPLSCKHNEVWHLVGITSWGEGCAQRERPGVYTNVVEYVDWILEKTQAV
Chain of human factor XIa (P03951 19-387 partner): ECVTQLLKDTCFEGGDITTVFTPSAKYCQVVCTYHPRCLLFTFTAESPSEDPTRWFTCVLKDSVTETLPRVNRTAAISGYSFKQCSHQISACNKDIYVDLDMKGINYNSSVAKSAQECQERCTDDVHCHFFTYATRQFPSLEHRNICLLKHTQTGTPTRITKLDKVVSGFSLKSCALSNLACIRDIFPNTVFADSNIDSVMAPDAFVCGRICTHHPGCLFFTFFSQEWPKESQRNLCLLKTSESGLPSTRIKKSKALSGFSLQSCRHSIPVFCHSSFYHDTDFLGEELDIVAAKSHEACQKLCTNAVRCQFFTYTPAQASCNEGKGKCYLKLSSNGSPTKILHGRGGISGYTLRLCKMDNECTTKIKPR

On to `N#Cc1ccc(Cl)cc1-c1cc(=O)n(C(Cc2cnco2)C(=O)Nc2ccc3nccn3c2)cc1Cl` (racemic) [Example 30, 2-[5-Chloro-4-(5-chloro-2-cyanophenyl)-2-oxopyridin-1(2H)-yl]-N-(imidazo[1,2-a]pyridin-6-yl)-3-(1,3-oxazol-5-yl)propanamide (racemate)], for which the pIC50 (as a rule, the negative decadic logarithm of the IC50, by convention in mol/L) at human factor XIa is 7.02; at human plasma kallikrein it was 6.92.

Turning to `N#Cc1ccc(Cl)cc1-c1cc(=O)n(C(Cc2cnco2)C(=O)Nc2ccc3nccn3c2)cc1OC(F)F` (racemic) [Example 31, 2-[4-(5-Chloro-2-cyanophenyl)-5-(difluoromethoxy)-2-oxopyridin-1(2H)-yl]-N-(imidazo[1,2-a]pyridin-6-yl)-3-(1,3-oxazol-5-yl)propanamide (racemate)], the pIC50 against human factor XIa is 6.30; against human plasma kallikrein it was 6.01.

On human factor XIa, `COc1cn(C(Cc2cocn2)C(=O)Nc2ccc3nccn3c2)c(=O)cc1-c1cc(Cl)ccc1C#N` (racemic) [Example 32, 2-[4-(5-Chloro-2-cyanophenyl)-5-methoxy-2-oxopyridin-1(2H)-yl]-N-(imidazo[1,2-a]pyridin-6-yl)-3-(1,3-oxazol-4-yl)propanamide (racemate)] gave a pIC50 of 7.04.

Regarding `N#Cc1ccc(Cl)cc1-c1cc(=O)n(C(Cc2cocn2)C(=O)Nc2ccc3nccn3c2)cc1Cl` (racemic) [Example 33, 2-[5-Chloro-4-(5-chloro-2-cyanophenyl)-2-oxopyridin-1(2H)-yl]-N-(imidazo[1,2-a]pyridin-6-yl)-3-(1,3-oxazol-4-yl)propanamide (racemate)], the pIC50 on human factor XIa was 6.51; against human plasma kallikrein, 6.60.

`COCCC(C(=O)Nc1ccn2nccc2c1)n1cc(OC)c(-c2cc(Cl)ccc2C#N)cc1=O` (single isomer, unassigned; enantiomer 1) [Example 36, 2-[4-(5-Chloro-2-cyanophenyl)-5-methoxy-2-oxopyridin-1(2H)-yl]-4-methoxy-N-(pyrazolo[1,5-a]pyridin-5-yl)butanamide (enantiomer 1)] gave a pIC50 against human plasma kallikrein of 8.49.

The molecule `COc1cn(CC(=O)Nc2ccc3nc(C(=O)O)cn3c2)c(=O)cc1-c1cc(Cl)ccc1C#N` [Example 6, 6-({[4-(5-Chloro-2-cyanophenyl)-5-methoxy-2-oxopyridin-1(2H)-yl]acetyl}amino)imidazo[1,2-a]pyridine-2-carboxylic acid] had a pIC50 at human plasma kallikrein of 7.21.

On human factor XIa, `O=C(Cn1cc(Cl)c(-c2cc(Cl)ccc2OC(F)F)cc1=O)Nc1ccc2nc(C(=O)O)cn2c1` [Example 8, 6-[({5-Chloro-4-[5-chloro-2-(difluoromethoxy)phenyl]-2-oxopyridin-1(2H)-yl}acetyl)amino]imidazo[1,2-a]pyridine-2-carboxylic acid] had a pIC50 of 6.42.
